# Source: patent publication US9095599B2, “O-(substituted benzyl) phosphoramidate compounds and therapeutic use” (Nanjing Molecular Research, Inc., priority 2011, dated 2015)
# pEC50: −log10 of the molar value. Entries after “also recorded” stand apart in the source; their conditions may differ.
# Assays:
# [1] = Cytotoxicity assay (LTR-luc luciferase reporter); format: cell-based; conditions: human; Huh-7 LTR-luc cells
# Source text: (§1) The anti-HCV activity and toxicity of the exemplary compounds can be tested in two biological assays—a cell-based HCV replicon assay and cytotoxicity assay (WO 2007/027248).
# A Huh-7 cell line carrying a luciferase reporter gene (driven by a HIV LTR promoter) stably integrated into the chromosome was used to analyze the cytotoxic effect of the selected compounds. This cell line (LTR-luc) was maintained in DMEM medium with 10% FBS. Design of the cytotoxicity assay was similar to that of the HCV replicon assay. Reduction of luciferase activity in the treated cells correlated with the cytotoxic effect of the test compound and was used to calculate the CC50 value (concentration that inhibited cell growth by 50%).
# (§2) The biological activities using subgenomic genotype 1a replicon and cytotoxicity of the selected compounds are summarized in Table 2.
# [2] = system: HCV subgenomic replicon (genotype 1a) in Huh-7 cells; test: HCV replicon assay (luciferase reporter); format: cell-based; conditions: for pEC50: Hepatitis C virus, subgenomic genotype 1a replicon, Huh-7 luc-ubi-neo, 48 h, diastereomer mixtures
# Experimental: Anti-HCV activity and cytotoxicity of compounds disclosed herein were assayed following patent method (WO 2007/027248).
# as §1
# A human hepatoma cell line (Huh-7) containing replicating HCV subgenomic replicon with a luciferase reporter gene (luc-ubi-neo) was used to evaluate anti-HCV activity of the compounds. In this assay, level of luciferase signal correlates with the viral RNA replication directly. The HCV replicon-reporter cell line (NK/luc-ubi-neo) was cultured in DMEM medium supplemented with 10% fetal bovine serum and 0.5 mg/ml Geneticin (G418). Cells were maintained in a subconfluent state to ensure high levels of HCV replicon RNA synthesis.
# To evaluate the antiviral activity of compounds, serial dilutions were prepared with concentrations ranging from 0.14 to 300 μM. Diluted compounds were transferred to a 96-well plate followed by the addition of replicon cells (6000 cells per well). Cells were incubated with the compounds for 48 h after which luciferase activity was measured. Reduction of luciferase signal reflected the decrease of HCV replicon RNA in the treated cells and used to determine the EC50 value (concentration which yielded a 50% reduction in luciferase activity).
# as §2
# [3] = Rat plasma and liver PK after iv administration; format: in vivo, SD rats
# Experimental: Pharmacokinetic (PK) study of prodrug FDURP (DGX-102) and parent drug (FDUR) in rats was completed according to following procedure.
# SD rats (250-300 g, male, N=15) were used for each compound, purchased from SLAC Laboratory Animal Co. LTD Qualification No.: SCXK (SH) 2007-0005, 13264. Compounds FDUR and FDURP were each dosed via tail vein injection. The animal was restrained manually at designated time points. Approximately 500 μL of blood/time point was collected into K2EDTA tube via cardiac puncture for terminal bleeding under anesthesia with Isoflurane. FDUR and FDURP blood samples were put on ice after collection and then centrifuged to obtain plasma sample (2000 g, 5 min, 4° C.) within 15 minutes of sampling. The blood samples were then centrifuged to obtain plasma sample (2000 g, 5 min, 4° C.). All the plasma samples were immediately quenched for protein precipitation. Liver samples of each compound were removed at designated time points by first sacrificing the animal by CO2 inhalation, then perfusing the liver with ice cold saline and removing the left middle liver lobe, which was then snap frozen in dry ice. Liver samples were stored at approximately −80° C. until analysis. The liver homogenate was then processed for further analysis by LC/MS-MS. Plasma and liver samples were stored at approximately −80° C. until analysis.
# Concentrations of prodrugs, parent drug and possible metabolites in both plasma and liver including FDURMP, FDUR, FDUR-MP and 5FU were determined by LC/MS-MS.
compound,measurement,setting,value
CC1(F)C(O)C(CO)OC1n1ccc(=O)[nH]c1=O (centres unmarked) [DGX-103],CC50,[1],> 100 µM
same,anti-HCV activity (in words),[2],biologically inactive
same,pEC50,[2],< 4.00
COc1ccc(COP(=O)(NCc2ccccc2)OCC2OC(n3ccc(=O)[nH]c3=O)C(C)(F)C2O)cc1F (centres unmarked) [DGX-104],CC50,[1],> 100 µM
same,anti-HCV activity (in words),[2],biologically potent; also recorded: potent anti-HCV activity
same,pEC50,[2],5.39
Cc1ccccc1COP(=O)(NCc1ccccc1)OCC1OC(n2ccc(=O)[nH]c2=O)C(C)(F)C1O (centres unmarked) [DGX-105],CC50,[1],> 100 µM
same,anti-HCV activity (in words),[2],biologically potent; also recorded: potent anti-HCV activity
same,pEC50,[2],5.72
CC1(F)C(O)C(COP(=O)(NCc2ccccc2)OCc2ccccc2)OC1n1ccc(=O)[nH]c1=O (centres unmarked) [DGX-106],CC50,[1],> 100 µM
same,anti-HCV activity (in words),[2],did not show any anti-HCV activity
same,pEC50,[2],< 4.00
COc1nc(N)nc2c1ncn2C1OC(CO)C(O)C1(C)O (centres unmarked) [DGX-110],CC50,[1],> 100 µM
same,anti-HCV activity (in words),[2],biologically active
same,pEC50,[2],6.05
COc1nc(N)nc2c1ncn2C1OC(COP(=O)(NCc2ccccc2)OCc2ccccc2C)C(O)C1(C)O (centres unmarked) [DGX-111],CC50,[1],69 µM
same,anti-HCV activity (in words),[2],biologically much more potent
same,pEC50,[2],6.52
"O=c1[nH]c(=O)n([C@H]2C[C@H](O)[C@@H](CO)O2)cc1F [FDUR, 5-fluoro-2′-deoxyuridine, reference compound]",Active metabolite FDUR-MP in the liver after administration,[3]; iv,not
same,liver Cmax,"[3]; monitored compound 5FU, iv",BQL
same,liver Cmax,"[3]; monitored compound FDUR, iv",BQL
same,liver Cmax,"[3]; monitored compound FDUR-MP, iv",BQL
same,"Drug FDUR Concentration, Liver","[3]; sampling 1, iv 0.015 mmol/kg",BQL
same,"Drug FDUR Concentration, Liver","[3]; sampling 2, iv 0.015 mmol/kg",BQL
same,"Drug FDUR Concentration, Plasma","[3]; sampling 2, iv 0.015 mmol/kg",BQL
same,"Drug FDUR Concentration, Liver","[3]; sampling 4, iv 0.015 mmol/kg",BQL
same,"Drug FDUR Concentration, Plasma","[3]; sampling 4, iv 0.015 mmol/kg",BQL
same,"Drug FDUR Concentration, Liver","[3]; sampling 8, iv 0.015 mmol/kg",BQL
same,"Drug FDUR Concentration, Plasma","[3]; sampling 8, iv 0.015 mmol/kg",BQL
same,"Drug FDUR Concentration, Liver","[3]; sampling 24, iv 0.015 mmol/kg",BQL
same,"Drug FDUR Concentration, Plasma","[3]; sampling 24, iv 0.015 mmol/kg",BQL
Cc1ccccc1COP(=O)(NCc1ccccc1)OCC1OC(n2cc(F)c(=O)[nH]c2=O)CC1O (centres unmarked) [FDURP],Active metabolite FDUR-MP in the liver after administration,[3]; iv,detected in the liver
same,"Concentrations of related active drugs (FDUR, FDUR-MP, 5FU) compared with administration of FDUR",[3]; iv,significantly increased
same,Exposure in plasma and liver compared with parent drug FDUR,[3]; iv,significantly greater
same,Tmax,"[3]; male, Sprague-Dawley, liver, 0.015 mmol/kg, monitored compound FDURP, iv",60 min
same,AUC(0-inf),"[3]; male, Sprague-Dawley, plasma, 0.015 mmol/kg, monitored compound FDURP, iv",10400 ng·h/mL
same,half-life,"[3]; male, Sprague-Dawley, plasma, 0.015 mmol/kg, monitored compound FDURP, iv, printed in Tmax column, read-out: plasma T½ (converted)",27 min
same,liver AUC(inf),"[3]; monitored compound FDURP, iv",1750 ng·h/mL
same,liver Cmax,"[3]; monitored compound FDURP, iv",1573 ng/mL
same,"Drug FDUR Concentration, Liver","[3]; sampling 1, iv 0.015 mmol/kg",BQL
same,"Drug FDUR Concentration, Liver","[3]; sampling 2, iv 0.015 mmol/kg",BQL
same,"Drug FDUR Concentration, Plasma","[3]; sampling 4, iv 0.015 mmol/kg",BQL
same,"Drug FDUR Concentration, Plasma","[3]; sampling 8, iv 0.015 mmol/kg",BQL
same,"Drug FDUR Concentration, Plasma","[3]; sampling 24, iv 0.015 mmol/kg",BQL
